According to patent US5925633A, “3-Substituted-4-oxa-1-azabicyclo [3,2,0]heptan-7-one as cysteine protease inhibitors” (Synphar Laboraties, Inc., priority 1996, dated 1999):
Like-named read-outs stand apart in the source and are kept apart here.

Tests used:
cathepsin B = cathepsin B (Rattus norvegicus, UniProt P00787); assay: In vitro assay procedure for cathepsin B (inhibition); assay type: biochemical
Protocol: The compounds of formula I were tested for inhibition of cathepsin B using the known method (A. J. Barret et al., Biochem. J. 1982, 201, 189-198). […] After 10 min of incubation at room temperature, a 20 μl of 5 mM substrate (N-CBZ-Phe-Arg-AMC, dissolved in DMSO) was added to initiate reaction. Reading is followed up for 10 min at the fluoroscan reader (excitation at 380 nm, emission at 460 nm).

papain = target: T1, papain (Carica papaya, UniProt P00784); assay: In vitro assay procedure for papain (inhibition); assay type: biochemical
T1 sequence (P00784 134-345): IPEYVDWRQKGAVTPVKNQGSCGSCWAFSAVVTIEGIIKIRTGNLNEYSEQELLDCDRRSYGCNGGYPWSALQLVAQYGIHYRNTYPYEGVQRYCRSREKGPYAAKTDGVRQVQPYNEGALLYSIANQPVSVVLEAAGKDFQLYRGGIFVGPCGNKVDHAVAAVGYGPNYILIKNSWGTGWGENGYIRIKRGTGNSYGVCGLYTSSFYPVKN
Protocol: To a 170 μl of enzyme-buffer mixture (enzyme: papain, diluted to give 30 mOD/min, buffer: 0.2 M potassium phosphate, 1.0 mM EDTA, 5 mM L-Cysteine, pH 6.5) a 10 μL of inhibitor (dissolved in DMSO) was added. After 10 min of incubation at room temperature, a 20 μl of 10 mM substrate (N-CBZ-Pro-Phe-Arg-pNA, dissolved in DMSO) was added to initiate reaction. Reading is followed up for 3 min at the Thermomax plate reader (absorbance at 405 nm)
A plot of percentage of inhibition vs inhibitor concentration is obtained, and IC50 is determined using a linear regression calculations (concentration of inhibitor which will give 50% inhibition).

[1] = rat cathepsin B, pH 5.1, 10 min incubation at room temperature, substrate N-CBZ-Phe-Arg-AMC, read-out: IC50 Cathepsin B
[2] = pH 6.5, 10 min incubation at room temperature, substrate N-CBZ-Pro-Phe-Arg-pNA, read-out: IC50 Papain

Chain of cathepsin B (P00787 80-339): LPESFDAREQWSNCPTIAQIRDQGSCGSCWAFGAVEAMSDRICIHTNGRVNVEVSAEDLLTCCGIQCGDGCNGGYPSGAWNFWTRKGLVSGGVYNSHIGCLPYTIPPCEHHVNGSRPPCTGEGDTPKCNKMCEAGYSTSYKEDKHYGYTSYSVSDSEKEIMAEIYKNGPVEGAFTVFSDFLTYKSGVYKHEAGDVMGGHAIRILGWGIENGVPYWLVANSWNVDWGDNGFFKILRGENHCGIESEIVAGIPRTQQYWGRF

`CCOC(=O)c1ccc2c(c1)nc1c(=O)n(C[C@H]3CN4C(=O)C[C@@H]4O3)c(=O)nc-1n2C` (relative stereo) [Example 15, (3RS, 5SR)-3-(7-ethoxycarbonyl-10-methylisoalloxazin-3-yl) -methyl-4-oxa-1-azabicyclo [3,2,0] heptan-7-one] gave an IC50 (cathepsin B; [1]) of 2.89 µM and an IC50 (papain; [2]) of 1.24 µM.
With `CC(C)(C)[Si](C)(C)OC[C@H]1CN2C(=O)C[C@@H]2O1` [Example 1A, (3R, 5S)-3-(tert-butyldimethylsilyl)oxymethyl-4-oxa-1-azabicyclo [3,2,0] heptan-7-one] the IC50 (cathepsin B) was 0.778 µM and the IC50 (papain; [2]) was 0.16 µM.
`CC(C)(C)[Si](C)(C)OC[C@H]1CN2C(=O)C[C@H]2O1` [Example 1B, (3R, 5R)-3-(tert-butyldimethylsilyl)oxymethyl-4-oxa-1-azabicyclo [3,2,0] heptan-7-one] showed an IC50 (cathepsin B) of 7.78 µM and an IC50 (papain; [2]) of 3.1 µM.
`O=C1C[C@@H]2O[C@@H](CO)CN12` [Example 2, (3R, 5S)-3-hydroxymethyl-4-oxa-1-azabicyclo[3,2,0] heptan-7-one] gave an IC50 (cathepsin B; [1]) of 5 µM and an IC50 (papain; [2]) of 2.03 µM.
`CC(=O)NC[C@H]1CN2C(=O)C[C@@H]2O1` [Example 3, (3S,5S)-3-(N-acetylamino)methyl-4-oxa-1-azabicyclo [3,2,0] heptan-7-one] showed an IC50 (cathepsin B; [1]) of 0.56 µM and an IC50 (papain; [2]) of 0.59 µM.
`O=C1C[C@@H]2O[C@@H](Cn3ccnn3)CN12` [Example 17, (3R,5S)-3-(1,2,3-triazol-1-yl)-methyl-4-oxa-1-azabicyclo [3,2,0] heptan-7-one] showed an IC50 (cathepsin B; [1]) of 0.29 µM and an IC50 (papain) of 0.29 µM.
In the case of `O=C(CC1CN2C(=O)CC2O1)OC(c1ccccc1)c1ccccc1` (stereo not shown) [Example 18, diphenylmethyl 2-(7-oxo-4-oxa-1-azabicyclo [3,2,0]heptan-3-yl)-acetate], the IC50 (cathepsin B; [1]) is reported as 2.97 µM and the IC50 (papain; [2]) is reported as 2.08 µM.
Work on `O=C(OCc1ccccc1)[C@@H]1CCCN1C(=O)CC1CN2C(=O)CC2O1` (stereo partly drawn) [Example 20, N-{(7-oxo-4-oxa-1-azabicyclo [3,2,0]heptan-3-yl)-methylcarbonyl} L-proline benzyl ester] yielded an IC50 (cathepsin B; [1]) of 13.7 µM and an IC50 (papain; [2]) of 0.56 µM.
`NC(CC(=O)O)C(=O)NCC1CN2C(=O)CC2O1` (stereo not shown) [Example 21] was tested, and the IC50 (cathepsin B; [1]) was 12.6 µM and the IC50 (papain; [2]) was > 20 µM.
For `NC(CC(=O)O)C(=O)OCC1CN2C(=O)CC2O1` (stereo not shown) [Example 22], the IC50 (cathepsin B; [1]) was > 20 µM and the IC50 (papain; [2]) was > 20 µM.
Work on `O=C(N[C@@H](Cc1ccccc1)C(=O)NCC1CN2C(=O)CC2O1)OCc1ccccc1` (stereo partly shown) [Example 23] yielded an IC50 (cathepsin B; [1]) of 2.4 µM and an IC50 (papain; [2]) of 0.35 µM.
Work on `NC(CCC(=O)OCC1CN2C(=O)CC2O1)C(=O)O` (stereo not shown) [Example 24] yielded an IC50 (cathepsin B; [1]) of 12 µM and an IC50 (papain; [2]) of 2.92 µM.
For `CC(N)C(=O)OCC1CN2C(=O)CC2O1` (stereo not shown) [Example 25], the IC50 (cathepsin B; [1]) was > 20 µM and the IC50 (papain; [2]) was 3.31 µM.
With `CC(N)C(=O)NCC1CN2C(=O)CC2O1` (stereo not shown) [Example 26] the IC50 (cathepsin B; [1]) was > 20 µM and the IC50 (papain; [2]) was 2.91 µM.
`O=C(CCl)NCC1CN2C(=O)CC2O1` (stereo not shown) [Example 27] showed an IC50 (cathepsin B; [1]) of 0.4 µM and an IC50 (papain; [2]) of 0.9 µM.
`O=C1CC2OC(CNC(=O)C(F)(F)F)CN12` (stereo not shown) [Example 28] was tested, and the IC50 (cathepsin B; [1]) was 0.33 µM and the IC50 (papain; [2]) was 0.84 µM.
Work on `O=C(O)C[S+]([O-])CC1CN2C(=O)CC2O1` (stereo not shown) [Example 29] yielded an IC50 (cathepsin B; [1]) of 0.38 µM and an IC50 (papain; [2]) of 3.9 µM.
Work on `CC(C)C(=O)NCC1CN2C(=O)CC2O1` (stereo not shown) [Example 30] yielded an IC50 (cathepsin B; [1]) of 0.46 µM and an IC50 (papain; [2]) of 0.95 µM.
`CC(=O)NCC(=O)NCC1CN2C(=O)CC2O1` (stereo not shown) [Example 31] showed an IC50 (cathepsin B; [1]) of 2.6 µM and an IC50 (papain; [2]) of 4.1 µM.
For `CCCCCC(=O)NCC1CN2C(=O)CC2O1` (stereo not shown) [Example 32], the IC50 (cathepsin B; [1]) was 2.3 µM and the IC50 (papain; [2]) was 2.3 µM.
Compound `CS(=O)(=O)NCC1CN2C(=O)CC2O1` (stereo not shown) [Example 33] has an IC50 (cathepsin B; [1]) of 0.95 µM and an IC50 (papain; [2]) of 0.91 µM.
`CC(=O)NCC[S+]([O-])CC1CN2C(=O)CC2O1` (stereo not shown) [Example 34] was tested, and the IC50 (cathepsin B; [1]) was 14.6 µM and the IC50 (papain; [2]) was 3.8 µM.
In the case of `O=C(O)CS(=O)(=O)CC1CN2C(=O)CC2O1` (stereo not shown) [Example 35], the IC50 (cathepsin B; [1]) is reported as 0.74 µM and the IC50 (papain; [2]) is reported as 12.9 µM.
`CCCCCCCCCCCCCCCC(=O)OCC1CN2C(=O)CC2O1` (stereo not shown) [Example 36] was tested, and the IC50 (cathepsin B; [1]) was > 50 µM and the IC50 (papain; [2]) was > 50 µM.
Compound `O=C(O)C=CC(=O)OCC1CN2C(=O)CC2O1` (stereo not shown) [Example 37] has an IC50 (cathepsin B; [1]) of 1.9 µM and an IC50 (papain; [2]) of 19 µM.
`O=COCCCCCC(=O)NCC1CN2C(=O)CC2O1` (stereo not shown) [Example 38] showed an IC50 (cathepsin B; [1]) of 3.5 µM and an IC50 (papain; [2]) of 2.2 µM.
`NCC1CN2C(=O)CC2O1` (stereo not shown) [Example 39] gave an IC50 (cathepsin B; [1]) of 5.5 µM and an IC50 (papain; [2]) of 5.5 µM.
`NC(CC(=O)O)C(=O)NCC(=O)NCC1CN2C(=O)CC2O1` (stereo not shown) [Example 40] gave an IC50 (cathepsin B; [1]) of 15.9 µM and an IC50 (papain; [2]) of 8.3 µM.
With `CC(=O)NCCCCC(NC(C)=O)C(=O)OCC1CN2C(=O)CC2O1` (stereo not shown) [Example 43] the IC50 (cathepsin B; [1]) was > 70 µM and the IC50 (papain; [2]) was 1.77 µM.
Compound `CC(=O)OCC1CN2C(=O)CC2O1` (stereo not shown) [Example 44] has an IC50 (cathepsin B; [1]) of 1.1 µM and an IC50 (papain; [2]) of 0.21 µM.
In the case of `O=C(CO)NCC1CN2C(=O)CC2O1` (stereo not shown) [Example 45], the IC50 (cathepsin B; [1]) is reported as 5 µM and the IC50 (papain; [2]) is reported as 1.69 µM.
In the case of `O=C(OCC1CN2C(=O)CC2O1)c1ccc2c(c1)C(=O)c1ccccc1C2=O` (stereo not shown) [Example 46], the IC50 (cathepsin B; [1]) is reported as 0.53 µM and the IC50 (papain; [2]) is reported as 0.021 µM.
In the case of `COc1ccc(C(=O)NCC2CN3C(=O)CC3O2)cc1OC` (stereo not shown) [Example 47], the IC50 (cathepsin B; [1]) is reported as 8.8 µM and the IC50 (papain; [2]) is reported as 0.13 µM.
`O=C1CC2OC(CSc3ccccc3)CN12` (stereo not shown) [Example 48] was tested, and the IC50 (cathepsin B; [1]) was 0.42 µM and the IC50 (papain; [2]) was 0.85 µM.
In the case of `NC(Cc1ccccc1)C(=O)NCC1CN2C(=O)CC2O1` (stereo not shown) [Example 49], the IC50 (cathepsin B; [1]) is reported as 3.08 µM and the IC50 (papain; [2]) is reported as 0.62 µM.
In the case of `O=C(OCC1CN2C(=O)CC2O1)c1ccc(O)c(O)c1` (stereo not shown) [Example 50], the IC50 (cathepsin B; [1]) is reported as 0.46 µM and the IC50 (papain; [2]) is reported as 2.5 µM.
With `COc1ccc(C(=O)OCC2CN3C(=O)CC3O2)cc1OC` (stereo not shown) [Example 51] the IC50 (cathepsin B; [1]) was 3.3 µM and the IC50 (papain; [2]) was 0.13 µM.
`COc1cc(C(=O)OCC2CN3C(=O)CC3O2)cc(OC)c1O` (stereo not shown) [Example 52] showed an IC50 (cathepsin B; [1]) of 3.1 µM and an IC50 (papain; [2]) of 0.62 µM.
Work on `Nc1ccc(C(=O)OCC2CN3C(=O)CC3O2)cc1` (stereo not shown) [Example 53] yielded an IC50 (cathepsin B; [1]) of 3.8 µM and an IC50 (papain; [2]) of 2.4 µM.
In the case of `O=C(OCC1CN2C(=O)CC2O1)c1cc(F)c(F)cc1F` (stereo not shown) [Example 54], the IC50 (cathepsin B; [1]) is reported as 8.3 µM and the IC50 (papain; [2]) is reported as 0.66 µM.
`N#Cc1ccc(C(=O)OCC2CN3C(=O)CC3O2)cc1` (stereo not shown) [Example 55] was tested, and the IC50 (cathepsin B; [1]) was 3.7 µM and the IC50 (papain; [2]) was 0.74 µM.
With `Cc1ccc(S(=O)(=O)NCC2CN3C(=O)CC3O2)cc1` (stereo not shown) [Example 56] the IC50 (cathepsin B; [1]) was 0.67 µM and the IC50 (papain; [2]) was 1.76 µM.
With `O=C1CC2OC(CNS(=O)(=O)c3ccc(Cl)cc3)CN12` (stereo not shown) [Example 57] the IC50 (cathepsin B; [1]) was 0.63 µM and the IC50 (papain; [2]) was 0.63 µM.
With `O=C(NCC1CN2C(=O)CC2O1)c1ccccc1` (stereo not shown) [Example 58] the IC50 (cathepsin B; [1]) was 4.1 µM and the IC50 (papain; [2]) was 0.81 µM.
`COc1ccc(S(=O)(=O)NCC2CN3C(=O)CC3O2)cc1` (stereo not shown) [Example 59] was tested, and the IC50 (cathepsin B; [1]) was 0.64 µM and the IC50 (papain; [2]) was 3.2 µM.
Work on `O=C(OCC1CN2C(=O)CC2O1)c1ccccc1` (stereo not shown) [Example 60] yielded an IC50 (cathepsin B; [1]) of 4 µM and an IC50 (papain; [2]) of 4 µM.
`O=C1CC2OC(CS(=O)(=O)c3ccccc3)CN12` (stereo not shown) [Example 61] gave an IC50 (cathepsin B; [1]) of 1.6 µM and an IC50 (papain; [2]) of 1.6 µM.
For `O=C1CC2OC(C[S+]([O-])Cc3ccccc3)CN12` (stereo not shown) [Example 62], the IC50 (cathepsin B; [1]) was 8.7 µM and the IC50 (papain; [2]) was 0.76 µM.
Compound `O=C(O)COc1ccc(C(=O)OCC2CN3C(=O)CC3O2)cc1` (stereo not shown) [Example 63] has an IC50 (cathepsin B; [1]) of 2 µM and an IC50 (papain; [2]) of 2.9 µM.
`O=C(O)c1ccccc1C(=O)OCC1CN2C(=O)CC2O1` (stereo not shown) [Example 64] showed an IC50 (cathepsin B; [1]) of 6.9 µM and an IC50 (papain; [2]) of 16 µM.
With `COc1ccc(C(=O)OCC2CN3C(=O)CC3O2)cc1` (stereo not shown) [Example 65] the IC50 (cathepsin B; [1]) was 8.9 µM and the IC50 (papain; [2]) was 2 µM.
`O=C(OCC1CN2C(=O)CC2O1)c1ccc(F)cc1` (stereo not shown) [Example 66] showed an IC50 (cathepsin B; [1]) of 3.8 µM and an IC50 (papain; [2]) of 2.4 µM.
Work on `O=C(OCC1CN2C(=O)CC2O1)c1ccc(O)cc1` (stereo not shown) [Example 67] yielded an IC50 (cathepsin B; [1]) of 3.8 µM and an IC50 (papain; [2]) of 2.4 µM.
